Columns and labels:
Carbonic anhydrase 2 = Carbonic anhydrase 2 (Bos taurus, UniProt P00921); experiment: Inhibition of bovine erythrocyte carbonic anhydrase 2 using 4-nitrophenyl acetate substrate by photometric assay
[1] = Cytotoxicity against mouse NIH/3T3 cells after 96 hrs by SRB assay; type: cell-based; conditions: NIH3T3, 96 h

Carbonic anhydrase 2, sequence (P00921 whole entry): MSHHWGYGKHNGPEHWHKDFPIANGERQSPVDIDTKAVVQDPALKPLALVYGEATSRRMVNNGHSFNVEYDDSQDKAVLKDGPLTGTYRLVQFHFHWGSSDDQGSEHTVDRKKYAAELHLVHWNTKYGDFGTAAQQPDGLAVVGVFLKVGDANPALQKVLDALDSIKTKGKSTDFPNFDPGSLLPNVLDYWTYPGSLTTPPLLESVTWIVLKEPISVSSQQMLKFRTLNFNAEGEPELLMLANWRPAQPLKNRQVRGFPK

Compound | Ki (Carbonic anhydrase 2) [µM] | IC50 [1] [µM]
COC(=O)[C@]12CCC(C)(C)C[C@H]1C1=CC[C@@H]3[C@@]4(C)C[C@@H](O)[C@H](O)C(C)(C)[C@@H]4CC[C@@]3(C)[C@]1(C)CC2 [MASLINIC ACID METHYL ESTER] | > 25 | –
COC(=O)[C@]12CC[C@@H](C)[C@H](C)[C@H]1C1=CC[C@@H]3[C@@]4(C)CC[C@H](O)C(C)(C)[C@@H]4CC[C@@]3(C)[C@]1(C)CC2 [METHYL URSOLATE] | > 10 | –
COC(=O)[C@@]1(C)CC[C@]2(C)CC[C@]3(C)C(=CC[C@@H]4[C@@]5(C)CC[C@H](O)C(C)(C)[C@@H]5CC[C@]43C)[C@@H]2C1 | > 10 | –
COC(=O)[C@]12CCC(C)(C)C[C@H]1C1=CC[C@@H]3[C@@]4(C)C[C@@H](OS(N)(=O)=O)[C@H](O)C(C)(C)[C@@H]4CC[C@@]3(C)[C@]1(C)CC2 | > 20 | 12.6
COC(=O)[C@]12CCC(C)(C)C[C@H]1C1=CC(=O)[C@@H]3[C@@]4(C)CC[C@H](O)C(C)(C)[C@@H]4CC[C@@]3(C)[C@]1(C)CC2 | > 50 | –
C=C(C)[C@@H]1CC[C@]2(C(=O)OC)CC[C@]3(C)[C@H](CC[C@@H]4[C@@]5(C)CC[C@H](O)C(C)(C)[C@@H]5CC[C@]43C)[C@@H]12 [METHYL BETULINATE] | > 50 | –
COC(=O)[C@]12CC[C@@H](C)[C@H](C)[C@H]1C1=CC(=O)[C@@H]3[C@@]4(C)CC[C@H](OS(N)(=O)=O)C(C)(C)[C@@H]4CC[C@@]3(C)[C@]1(C)CC2 | > 15 | 25.9
COC(=O)[C@]12CC[C@@H](C)[C@H](C)[C@H]1C1=CC(=O)[C@@H]3[C@@]4(C)CC[C@H](O)C(C)(C)[C@@H]4CC[C@@]3(C)[C@]1(C)CC2 | > 50 | –
COC(=O)[C@]12CCC(C)(C)C[C@H]1C1=CC[C@@H]3[C@@]4(C)CC[C@H](O)C(C)(C)[C@@H]4CC[C@@]3(C)[C@]1(C)CC2 [METHYL OLEANOLATE] | > 10 | –
COC(=O)[C@]12CC[C@@H](C(C)=O)[C@@H]1[C@H]1CC[C@@H]3[C@@]4(C)CC[C@H](O)C(C)(C)[C@@H]4CC[C@@]3(C)[C@]1(C)CC2 | > 5 | –
COC(=O)[C@@]1(C)CC[C@]2(C)CC[C@]3(C)C(=CC(=O)[C@@H]4[C@@]5(C)CC[C@H](O)C(C)(C)[C@@H]5CC[C@]43C)[C@@H]2C1 | > 10 | –

Now from value to molecule, other results behind:

Ki (Carbonic anhydrase 2) [µM] | Compound | IC50 [1] [µM]
0.308 | COC(=O)[C@]12CCC(C)(C)C[C@H]1C1=CC[C@@H]3[C@@]4(C)CC[C@H](OS(N)(=O)=O)C(C)(C)[C@@H]4CC[C@@]3(C)[C@]1(C)CC2 | 12.8
> 4 | COC(=O)[C@@]1(C)CC[C@]2(C)CC[C@]3(C)C(=CC[C@@H]4[C@@]5(C)CC[C@H](OS(N)(=O)=O)C(C)(C)[C@@H]5CC[C@]43C)[C@@H]2C1 | > 30
2.16 | C=C(C)[C@@H]1CC[C@]2(C(=O)OC)CC[C@]3(C)[C@H](CC[C@@H]4[C@@]5(C)CC[C@H](OS(N)(=O)=O)C(C)(C)[C@@H]5CC[C@]43C)[C@@H]12 | 9.8
1.51 | COC(=O)[C@@]1(C)CC[C@]2(C)CC[C@]3(C)C(=CC(=O)[C@@H]4[C@@]5(C)CC[C@H](OS(N)(=O)=O)C(C)(C)[C@@H]5CC[C@]43C)[C@@H]2C1 | > 30
1.49 | COC(=O)[C@]12CCC(C)(C)C[C@H]1C1=CC(=O)[C@@H]3[C@@]4(C)CC[C@H](OS(N)(=O)=O)C(C)(C)[C@@H]4CC[C@@]3(C)[C@]1(C)CC2 | 25.9
1.11 | COC(=O)[C@]12CC[C@@H](C)[C@H](C)[C@H]1C1=CC[C@@H]3[C@@]4(C)CC[C@H](OS(N)(=O)=O)C(C)(C)[C@@H]4CC[C@@]3(C)[C@]1(C)CC2 | 22.8
1.41 | COC(=O)[C@]12CCC(C)(C)C[C@H]1C1=CC[C@@H]3[C@@]4(C)C[C@@H](O)[C@H](OS(N)(=O)=O)C(C)(C)[C@@H]4CC[C@@]3(C)[C@]1(C)CC2 | 2.2
1.74 | COC(=O)[C@]12CC[C@@H](C(C)=O)[C@@H]1[C@H]1CC[C@@H]3[C@@]4(C)CC[C@H](OS(N)(=O)=O)C(C)(C)[C@@H]4CC[C@@]3(C)[C@]1(C)CC2 | > 30

— ChEMBL document CHEMBL3352703, “Sulfamates of methyl triterpenoates are effective and competitive inhibitors of carbonic anhydrase II” (Eur J Med Chem, 2014)
